Literature values in patent US20140357595A1, “METHODS OF PREVENTING AND TREATING RECURRENCE OF A HEPATITIS C VIRUS INFECTION IN A SUBJECT AFTER THE SUBJECT HAS RECEIVED A LIVER TRANSPLANT” (priority 2013, published 2014).

Experiments:
[1] = target: T1, HCV NS5B RNA dependent RNA polymerase (Hepatitis C virus genotype 1a, UniProt P27958)
T1 construct: the HCV NS5B RNA dependent RNA polymerase

[2] = clinical trials

T1 sequence (P27958 2421-3011): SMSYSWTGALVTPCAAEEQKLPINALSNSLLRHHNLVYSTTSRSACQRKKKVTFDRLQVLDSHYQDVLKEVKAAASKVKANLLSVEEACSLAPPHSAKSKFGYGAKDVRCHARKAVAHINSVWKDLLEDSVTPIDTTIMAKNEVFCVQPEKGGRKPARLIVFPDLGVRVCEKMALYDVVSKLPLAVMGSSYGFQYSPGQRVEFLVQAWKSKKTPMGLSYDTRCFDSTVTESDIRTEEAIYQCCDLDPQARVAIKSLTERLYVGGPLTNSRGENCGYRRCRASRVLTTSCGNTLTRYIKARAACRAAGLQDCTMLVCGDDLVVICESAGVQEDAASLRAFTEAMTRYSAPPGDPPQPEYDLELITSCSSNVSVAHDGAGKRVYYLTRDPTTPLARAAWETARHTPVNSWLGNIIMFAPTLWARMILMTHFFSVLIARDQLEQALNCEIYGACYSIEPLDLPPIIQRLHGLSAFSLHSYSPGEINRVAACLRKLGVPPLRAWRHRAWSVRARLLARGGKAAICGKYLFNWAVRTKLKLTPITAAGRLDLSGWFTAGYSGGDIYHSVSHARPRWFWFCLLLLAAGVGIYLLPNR

Row | SMILES | inhibition of HCV replication mediated by the HCV NS5B RNA dependent RNA polymerase [1] | tolerability [2]
1 | C[C@@]1(F)[C@H](O)[C@@H](COP(=O)(O)OP(=O)(O)OP(=O)(O)O)O[C@H]1n1ccc(=O)[nH]c1=O [5′-triphosphate metabolite of Compound 1] | potent and selective inhibitor | –
2 | CC(C)OC(=O)[C@H](C)N[P@](=O)(OC[C@H]1O[C@@H](n2ccc(=O)[nH]c2=O)[C@](C)(F)[C@@H]1O)Oc1ccccc1 [Compound 1, (S)-isopropyl 2-(((S)-(((2R,3R,4R,5R)-5-(2,4-dioxo-3,4-dihydropyrimidin-1(2H)-yl)-4-fluoro-3-hydroxy-4-methyltetrahydrofuran-2-yl)methoxy)(phenoxy)phosphoryl)amino)propanoate] | – | well-tolerated
